# Tests used:
# [1] = target: Sodium-dependent dopamine transporter (Homo sapiens, UniProt Q01959); assay: Inhibition of human dopamine transporter expressed in HEK293 cells assessed as inhibition of dopamine uptake measured after 30 mins by fluorescence analysis; format: cell-based
# [2] = target: Adenosine receptor A2a (Homo sapiens, UniProt P29274); assay: Displacement of [3 H]2-[p-(2-carboxyethyl)phenyl-ethylamino]-5'-N-ethylcarboxamidoadenosine from recombinant human adenosine receptor A2A expressed in HEK293 cell membranes at 10 uM after 60 mins by liquid scintillation counting method relative to control
# Sequence of Adenosine receptor A2a (P29274 whole entry): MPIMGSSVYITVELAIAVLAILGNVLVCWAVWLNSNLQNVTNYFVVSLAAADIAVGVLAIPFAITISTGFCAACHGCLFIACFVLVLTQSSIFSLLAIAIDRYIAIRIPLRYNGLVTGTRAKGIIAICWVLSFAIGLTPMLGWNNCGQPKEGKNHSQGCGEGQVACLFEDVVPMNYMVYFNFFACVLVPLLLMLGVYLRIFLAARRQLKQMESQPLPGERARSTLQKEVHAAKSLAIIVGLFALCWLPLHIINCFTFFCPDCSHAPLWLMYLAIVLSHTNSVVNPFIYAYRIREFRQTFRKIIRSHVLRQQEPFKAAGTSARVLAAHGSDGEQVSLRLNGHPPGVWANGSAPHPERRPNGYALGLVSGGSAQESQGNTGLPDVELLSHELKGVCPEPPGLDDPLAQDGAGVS
# [3] = Apparent permeability across apical side to basolateral side in human Caco2 cells; format: ADME, cell-based; conditions: caco-2
# [4] = Stability of compound in pH 6.5 fasted state simulated intestinal fluid assessed as compound remaining measured after 2 hrs; format: ADME; conditions: simulated gi fluid, pH 6.5, 2 h
# [5] = target: T1, 5-hydroxytryptamine receptor 2A (Homo sapiens, UniProt P28223); assay: Antagonist activity at human 5-HT2AR expressed in Flp-In HEK cells assessed as inhibition of serotonin induced calcium mobilization at 10 uM preincubated for 5 to 10 mins followed by serotonin addition by Fluo-4 dye based FLIPR assay relative to control; format: functional, cell-based; conditions: HEK293
# T1 sequence (P28223 whole entry): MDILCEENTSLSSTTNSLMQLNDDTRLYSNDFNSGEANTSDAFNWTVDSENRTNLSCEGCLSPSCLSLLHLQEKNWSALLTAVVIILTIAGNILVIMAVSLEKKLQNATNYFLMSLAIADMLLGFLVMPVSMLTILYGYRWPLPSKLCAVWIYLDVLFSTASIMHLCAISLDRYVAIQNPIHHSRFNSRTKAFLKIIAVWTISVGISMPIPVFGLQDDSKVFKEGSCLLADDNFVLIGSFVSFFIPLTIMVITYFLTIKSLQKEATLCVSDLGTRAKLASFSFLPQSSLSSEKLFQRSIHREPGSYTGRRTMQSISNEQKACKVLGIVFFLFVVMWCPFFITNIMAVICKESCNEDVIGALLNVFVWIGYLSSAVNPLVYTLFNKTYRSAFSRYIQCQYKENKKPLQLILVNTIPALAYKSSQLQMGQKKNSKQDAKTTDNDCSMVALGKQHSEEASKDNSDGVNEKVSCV
# [6] = target: T1, 5-hydroxytryptamine receptor 2A; assay: Agonist activity at human 5-HT2AR expressed in Flp-In HEK cells assessed as calcium mobilization at 10 uM measured for 2 mins by Fluo-4 dye based FLIPR assay; format: cell-based; conditions: hek293, 2 min
# [7] = target: Cytochrome P450 1A2 (Homo sapiens, UniProt P05177); assay: Inhibition of CYP1A2 (unknown origin); format: ADME
# Sequence of Cytochrome P450 1A2 (P05177 whole entry): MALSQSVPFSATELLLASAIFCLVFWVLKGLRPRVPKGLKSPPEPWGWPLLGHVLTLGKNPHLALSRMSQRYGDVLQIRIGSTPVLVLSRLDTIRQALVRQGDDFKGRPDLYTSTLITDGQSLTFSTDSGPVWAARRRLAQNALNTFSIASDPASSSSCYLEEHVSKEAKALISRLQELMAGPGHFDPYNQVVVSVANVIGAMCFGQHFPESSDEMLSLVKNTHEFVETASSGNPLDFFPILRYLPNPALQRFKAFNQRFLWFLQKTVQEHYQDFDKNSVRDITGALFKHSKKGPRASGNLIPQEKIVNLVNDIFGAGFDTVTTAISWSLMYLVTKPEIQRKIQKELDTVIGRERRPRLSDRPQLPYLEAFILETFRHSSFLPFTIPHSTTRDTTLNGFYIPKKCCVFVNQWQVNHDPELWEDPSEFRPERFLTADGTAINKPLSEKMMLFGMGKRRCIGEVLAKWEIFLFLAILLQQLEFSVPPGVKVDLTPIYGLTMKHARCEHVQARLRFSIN
# [8] = target: Cytochrome P450 2C19 (Homo sapiens, UniProt P33261); assay: Inhibition of CYP2C19 (unknown origin); format: ADME
# Sequence of Cytochrome P450 2C19 (P33261 whole entry): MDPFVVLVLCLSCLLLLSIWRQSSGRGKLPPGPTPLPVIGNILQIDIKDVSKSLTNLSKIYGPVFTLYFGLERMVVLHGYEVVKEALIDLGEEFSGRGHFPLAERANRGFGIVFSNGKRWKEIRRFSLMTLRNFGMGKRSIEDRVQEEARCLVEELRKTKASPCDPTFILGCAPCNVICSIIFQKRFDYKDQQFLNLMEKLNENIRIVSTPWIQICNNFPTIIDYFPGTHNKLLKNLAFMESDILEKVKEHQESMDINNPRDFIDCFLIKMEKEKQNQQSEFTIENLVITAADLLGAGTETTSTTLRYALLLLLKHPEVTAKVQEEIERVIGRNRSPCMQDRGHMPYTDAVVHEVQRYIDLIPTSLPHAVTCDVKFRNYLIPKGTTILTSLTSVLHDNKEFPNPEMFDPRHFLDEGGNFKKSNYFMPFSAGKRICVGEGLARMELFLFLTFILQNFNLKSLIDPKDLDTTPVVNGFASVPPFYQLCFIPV
# [9] = target: Cytochrome P450 2D6 (Homo sapiens, UniProt P10635); assay: Inhibition of CYP2D6 (unknown origin); format: ADME
# Sequence of Cytochrome P450 2D6 (P10635 whole entry): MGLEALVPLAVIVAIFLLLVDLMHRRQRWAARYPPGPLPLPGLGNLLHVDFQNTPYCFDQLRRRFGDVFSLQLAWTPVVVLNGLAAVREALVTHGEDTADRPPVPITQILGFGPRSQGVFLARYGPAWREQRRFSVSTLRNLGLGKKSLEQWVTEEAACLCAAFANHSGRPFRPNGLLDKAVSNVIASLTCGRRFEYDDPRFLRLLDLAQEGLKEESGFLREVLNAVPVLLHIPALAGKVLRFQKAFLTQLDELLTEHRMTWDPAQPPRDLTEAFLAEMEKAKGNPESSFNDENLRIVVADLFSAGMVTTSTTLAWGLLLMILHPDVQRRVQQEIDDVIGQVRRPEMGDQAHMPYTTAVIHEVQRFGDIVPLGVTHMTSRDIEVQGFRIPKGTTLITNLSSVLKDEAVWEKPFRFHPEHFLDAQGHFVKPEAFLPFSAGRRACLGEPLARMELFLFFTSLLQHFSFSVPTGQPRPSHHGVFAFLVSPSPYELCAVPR
# [10] = target: Cytochrome P450 3A4 (Homo sapiens, UniProt P08684); assay: Inhibition of CYP3A4 (unknown origin); format: ADME
# Sequence of Cytochrome P450 3A4 (P08684 whole entry): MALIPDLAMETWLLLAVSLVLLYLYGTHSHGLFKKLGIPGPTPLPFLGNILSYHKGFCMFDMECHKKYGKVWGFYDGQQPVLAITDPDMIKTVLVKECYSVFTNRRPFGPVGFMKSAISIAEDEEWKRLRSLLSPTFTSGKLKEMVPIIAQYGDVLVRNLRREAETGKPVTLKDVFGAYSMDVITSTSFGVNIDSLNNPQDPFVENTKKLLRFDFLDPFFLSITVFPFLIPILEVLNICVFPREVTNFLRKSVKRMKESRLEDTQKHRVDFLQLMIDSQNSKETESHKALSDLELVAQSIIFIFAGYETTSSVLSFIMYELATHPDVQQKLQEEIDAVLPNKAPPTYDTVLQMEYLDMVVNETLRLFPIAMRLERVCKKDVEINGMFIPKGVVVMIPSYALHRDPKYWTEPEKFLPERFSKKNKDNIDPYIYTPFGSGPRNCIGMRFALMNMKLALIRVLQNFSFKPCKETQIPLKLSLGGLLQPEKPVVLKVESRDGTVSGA
# Sequence of Sodium-dependent dopamine transporter (Q01959 whole entry): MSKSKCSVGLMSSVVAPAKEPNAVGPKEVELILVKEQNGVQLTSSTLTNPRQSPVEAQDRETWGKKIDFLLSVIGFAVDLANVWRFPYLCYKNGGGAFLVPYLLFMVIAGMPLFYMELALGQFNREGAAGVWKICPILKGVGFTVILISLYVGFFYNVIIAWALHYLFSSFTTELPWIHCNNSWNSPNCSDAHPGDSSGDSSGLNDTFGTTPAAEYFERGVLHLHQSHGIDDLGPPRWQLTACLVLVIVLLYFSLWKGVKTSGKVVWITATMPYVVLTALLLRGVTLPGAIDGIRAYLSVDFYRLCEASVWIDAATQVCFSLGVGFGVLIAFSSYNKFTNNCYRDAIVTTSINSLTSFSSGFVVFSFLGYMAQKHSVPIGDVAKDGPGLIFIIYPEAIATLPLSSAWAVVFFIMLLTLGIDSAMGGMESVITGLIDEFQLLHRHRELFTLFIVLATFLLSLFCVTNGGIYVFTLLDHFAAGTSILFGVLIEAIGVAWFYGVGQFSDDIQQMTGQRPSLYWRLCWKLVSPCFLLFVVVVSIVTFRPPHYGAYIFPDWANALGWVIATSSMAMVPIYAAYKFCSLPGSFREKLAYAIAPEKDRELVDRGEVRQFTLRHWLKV
compound,measurement,setting,value
OC[C@@]12C[C@@H]1[C@@H](n1cnc3c(NC(C4CC4)C4CC4)nc(Cl)nc31)[C@H](O)[C@@H]2O,Ki,[1],4.8 µM
COC(=O)[C@@]12C[C@@H]1[C@@H](n1cnc3c(NC(C4CC4)C4CC4)nc(Cl)nc31)[C@H](O)[C@@H]2O,inhibition,[2],33%
same,Papp,[3],184.7 nm/s
same,Stability,[4],97%
CCOC(=O)[C@@]12C[C@@H]1[C@@H](n1cnc3c(NC(C4CC4)C4CC4)nc(Cl)nc31)[C@H](O)[C@@H]2O,inhibition,[5],> 10%
same,Activity,[6],> 10%
CNC(=O)[C@@]12C[C@@H]1[C@@H](n1cnc3c(NC(C4CC4)C4CC4)nc(Cl)nc31)[C@H](O)[C@@H]2O,Papp,[3],47.3 nm/s
same,IC50,[7],> 30 µM
same,IC50,[8],> 30 µM
same,IC50,[9],> 30 µM
same,IC50,[10],> 30 µM

# — ChEMBL document CHEMBL3862033 (J Med Chem, 2016)
